Source: patent publication US5101059A, “Amino acid protecting groups” (Research Corporation Technologies, Inc., priority 1989, dated 1992)

Columns and labels:
Type in all cases: physicochemical
[1] = Piperidine deblocking of bis(9-fluorenyl)methyl carbanilate; settings: piperidine 48.5 eq., anhydrous ether, room temperature
Protocol: B. Piperidine Deblocking of Bis(9-fluorenyl)methyl Carbanilate: To a suspension of 20 mg (0.042 mmol) of αF-Fmoc-analine in 0.2 mL of anhydrous ether was added 0.2 mL (2.02 mmol, 48.5 eq.) of piperidine. The mixture was stirred at room temperature and monitored by TLC with an eluant consisting of Skelly B--CH2 Cl2 (1:1). […] No attempt was made to isolate the individual component of the final reaction mixture.

[2] = Stability of difluorenyl derivatives in trifluoroacetic acid; settings: TFA 500 eq.
Protocol: C. Stability of FM-Fmoc-analine in Trifluoroacetic Acid: To a solution of 51.3 mg of FM-Fmoc-analine in 6 mL of CHCl3 was added 4 mL (500 eq.) of trifluoroacetic acid. The mixture was stirred at room temperature and monitored by TLC with an eluant consisting of Skelly B--ether (2:1). No change was noted after two days. The mixture was diluted with 10 mL of chloroform, and washed with H2 O (2×15 mL) and sat'd NaHCO3 (2×15 mL). […] 241°-243° C., the ^1 H NMR and IR spectra of which matched that of an authentic sample.
D. Stability of Bis(9-fluorenyl)methyl Carbanilate Towards Trifluoroacetic Acid: To a solution of 100 mg of α-F-Fmoc-analine in 12 mL of chloroform was added 8 mL (500 eq.) of trifluoroacetic acid. The mixture was stirred at room temperature and monitored by TLC with an eluant consisting of Skelly B--ether (2:1). No change was noted after 24 hours. The mixture was washed with water (2×10 mL), sat'd NaHCO3 (3×10 mL), and water (10 mL). […] 223°-226° C. (dec.), the ^1 H NMR and IR spectra of which matched that of an authentic sample.

[3] = HPLC monitoring of the deblocking of Nε-(9-xanthenylmethoxycarbonyl)-L-lysine by TBD; settings: TBD 20 eq., pyridine and DMF, room temperature
Protocol: B. HPLC Monitoring of the Deblocking of N^ε -(9-Xanthenylmethoxycarbonyl)-L-lysine by TBD: A mixture of […] of H-Lys(Xmoc)-OH and 150 mg (20 eq.) of 1,5,9-triazabicyclo[4,4,0]dec-5-ene (TBD) in 0.3 mL of pyridine and 0.3 mL of DMF was stirred at room temperature. A 20 μL portion of the mixture was neutralized with a solution of 0.3 mL of 5% HCl and 0.3 mL of methanol, filtered, and injected for HPLC analysis which was carried out on a Waters Radial Pak 10-μm C18 reverse phase column (0.8×10 cm) under the following conditions:
Mobile phase: 65% methanol and 35% TFA (0.1% in water)

[4] = Stability of FM-Fmoc-aniline towards catalytic hydrogenolysis; settings: 5% Pd/C, 45 psi hydrogen, 24 hours
Protocol: E. Stability of FM-Fmoc-aniline Towards Catalytic Hydrogenolysis: To a mixture of 100 mg of FM-Fmoc-aniline and 63.9 mg of Fmoc-aniline in 30 mL of freshly distilled THF and 15 mL of 100% EtOH was added 30 mg of 5% palladium on charcoal. The mixture was shaken under hydrogen at a pressure of 45 psi in a Parr apparatus for 24 hours. […] Recrystallization of the latter from ethyl acetate gave 89.1 mg (89.1%) of the pure FM-Fmoc-anilineas white crystals, m.p. 243°-244° C. the ^1 H NMR and IR spectra of which matched that of an authentic sample.

[5] = Protolysis of BTS-Fmoc-PCA in trifluoroacetic acid; settings: TFA 10.7 eq., CH2Cl2, room temperature, 12 hours
Protocol: 4. Protolysis of 2,7-Bis(trimethylsilyl)-9-fluoroenylmethyl p-Chlorocarbanilate in Trifluoroacetic Acid: To a solution of 0.3 g of BTS-Fmoc-PCA in 8 mL of CH2 Cl2 was added dropwise a solution of 0.5 mL (10.7 eq.) of trifluoroacetic acid in 3.0 mL of methylene chloride over a period of 10 minutes. The mixture was stirred at room temperature for 12 hours, washed with water (2×10 mL), and neutralized with sat'd NaHCO3 (2×10 mL). […] Recrystallization from EtOAc--Skelly B (2:1) gave 0.16 g (75.3%) of the pure urethane as colorless needles, m.p. 184°-185° C., identified by mixture melting point, and IR and NMR spectral comparisons with an authentic sample.

[6] = Base deblocking of substituted urethanes (U-PCA) by various amines; settings: dichloromethane, room temperature
Excerpt: 1. General Procedure for Studying the Base Deblocking of the Urethanes Fmoc-PCA, BTS-Fmoc-PCA, DT-Fmoc-PCA, and TMS-Fmoc-PCA: A mixture of urethane (0.05 mmol) in a solution prepared from an equal volume of base (2.5 mmol, 50 eq.) and dichloromethane was stirred at room temperature. The course of the reaction was monitored by TLC with an eluant consisting of Skelly B--ether (3:1).

[7] = Stability of substituted Fmoc-PCA in acetic acid; settings: glacial acetic acid 10 eq., CH2Cl2, room temperature, 48 hours
Protocol: 2. […] The mixture was stirred at room temperature for 48 hours. […] The mixture was washed with half sat'd NaHCO3 (2×10 mL) and water (10 mL). […] 161°-163° C., the IR and ^1 H NMR spectra of which matched that of an authentic sample.
3. Stability of 9-Trimethylsilyl-9-[…] p-Chlorocarbanilate in Acetic Acid: To a solution of 0.37 g of TMS-Fmoc-PCA in 10 mL of CH2 Cl2 was added 0.5 mL (10 eq.) of glacial acetic acid. The mixture was stirred at room temperature. […] The mixture was washed with half sat'd NaHCO3 (2×10 mL) and H2 O (10 mL). […] 124°-126° C., the ^1 H NMR and IR spectra of which matched that of an authentic sample.

[8] = chloroform, room temperature, 24 hours
[9] = CHCl3, room temperature, two days

O=C(Nc1ccccc1)OC(C1c2ccccc2-c2ccccc21)C1c2ccccc2-c2ccccc21 [α-F-Fmoc-aniline, Bis(9-fluorenyl)methyl Carbanilate]
time for total decomposition of the urethane [1]: ≤ 10 min | recovered urethane [2, 8]: 98.3% | stability in trifluoroacetic acid (TLC) [2, 8]: No change

N[C@@H](CCCCNC(=O)OCC1c2ccccc2Oc2ccccc21)C(=O)O [H-Lys(Xmoc)-OH, N^ε -(9-Xanthenylmethoxycarbonyl)-L-lysine]
time after which no starting material was left (HPLC) [3]: ≤ 4.5 h

O=C(Nc1ccccc1)OCC1(CC2c3ccccc3-c3ccccc32)c2ccccc2-c2ccccc21 [FM-Fmoc-aniline, 9-(9'-Fluorenylmethyl)-9-fluorenylmethyl Carbanilate]
recovered urethane [4]: 99.4% | recovered urethane [2, 9]: 97.1% | stability in trifluoroacetic acid (TLC) [2, 9]: No change

C[Si](C)(C)c1ccc2c(c1)C(COC(=O)Nc1ccc(Cl)cc1)c1cc([Si](C)(C)C)ccc1-2 [BTS-Fmoc-PCA, 2,7-Bis(trimethylsilyl)-9-fluorenylmethyl p-Chlorocarbanilate]
product of protolysis in trifluoroacetic acid [5]: 9-fluorenylmethyl p-chlorocarbanilate | Time for Complete Deblocking ([6]; ethanolamine 50 eq.): 90 min | Time for Complete Scavenging of Dibenzofulvene Analogs ([6]; morpholine 50 eq.): 3.5 hr | Time for Complete Deblocking ([6]; morpholine 50 eq., significant aminodibenzofulvene type adduct formed): 190 min | Time for Complete Scavenging of Dibenzofulvene Analogs ([6]; piperidine 50 eq.): 40 min | Time for Complete Deblocking ([6]; piperidine 50 eq., significant aminodibenzofulvene type adduct formed): < 3 min | Time for Complete Deblocking ([6]; t-butylamine 50 eq.): 270 min | recovered urethane [7]: 95.35% | stability in acetic acid (TLC) [7]: no change
